According to a melting point compilation (Tetko et al.; mined from patent text by program, amines drawn as free bases though some values may be those of a salt):

Compared with `N#Cc1c(N2CCN(C(=O)c3cccs3)CC2)c2ccccc2n(-c2ccccc2)c1=O`, `O=C1c2ccc(Sc3ccc4c(c3)C(=O)N(c3ccccc3)C4=O)cc2C(=O)N1c1ccccc1` is lower in melting point: 289 °C for the first, 275 to 280 °C for the second.

Compared with `O=C1c2ccccc2C(=O)N1OCCCN1CCOCC1`, `COC(=O)CN1C(=O)c2ccc3ccccc3c2S1(=O)=O` is higher in melting point: 98 °C for the first, 188 °C for the second.

`CCOCc1nc2nc(O)cnc2c(=O)[nH]1` and `CCOC(=O)Cc1c[nH]c2nc(Nc3ccccc3)nn2c1=O` cannot be ordered by melting point: 255 to 256 °C for the first, 255 to 257 °C for the second.

Compared with `O=C(O)c1cc(Cl)c(Cl)c(Cl)n1`, `CC(=O)c1cc(C(=O)c2ccccc2Cl)c(N)s1` is higher in melting point: 115 to 120 °C for the first, 190 to 191 °C for the second.

First: Nc1ncccc1-c1nc2cc(F)cnc2n1-c1ccc(CC(=O)Nc2ccccc2)cc1
Second: COc1ccc(C(=O)c2ccc(OCc3nc(-c4ccccc4)oc3C)nc2)c(O)c1
The melting point of the first is higher: 240 to 242 °C for the first, 137 to 138 °C for the second.

First: CN(C)CC(O)C(c1ccccc1)c1ccc(F)cc1 (stereo unspecified)
Second: O=C(Cc1ccc(C(F)(F)F)cc1)c1ccc(F)cc1
The melting point of the first is lower: 55 to 57 °C for the first, 93 to 95 °C for the second.

Compared with `CCCCCCOc1cccc2c(OCCCCCC)cccc12`, `CCCc1cc(-c2nc(-c3ccc(C)cc3)cs2)ccn1` is higher in melting point: 92 to 93 °C for the first, 190 to 193 °C for the second.

First: Nc1sc2c(c1C(=O)c1cccc3ccccc13)CCCC2
Second: COC(=O)c1cc2ccccc2c(-c2ccnc(Cl)c2)c1C(=O)OC
The melting point of the first is lower: 137 to 140 °C for the first, 174 to 178 °C for the second.

First: COCCN1C(=O)C(C)(C)C(=O)Nc2cc(CN(CCn3cc(C)c4occc4c3=O)Cc3cccnc3C)ccc21
Second: CS(=O)(=O)c1ccc(Oc2cc(OCc3ccccc3)c3[nH]c(C(N)=O)cc3c2)cc1
The melting point of the first is lower: 205 to 206 °C for the first, 251 to 252 °C for the second.

Going from `CSC(=S)c1cccc([N+](=O)[O-])c1` to `O=[N+]([O-])c1ccc(NC2CCCCC2)c([N+](=O)[O-])c1`, the melting point rises from 38 °C to 153 °C.

First: COc1cc(OCC(CO)CO)c(-c2cccs2)cc1C=CC(=O)c1ccc(S(N)(=O)=O)cc1
Second: CCc1csc(-n2cc(C)cc2-c2ccc(S(N)(=O)=O)cc2)c1
The melting point of the first is higher: 191 to 192 °C for the first, 139 to 141 °C for the second.

First: Clc1cc2oc3ccccc3c2nn1
Second: OCc1ccccc1CCCc1cc2c(cc1O)CCO2
The melting point of the first is higher: 122 °C for the first, 110 to 112 °C for the second.

First: N#CCc1ccc(Br)nc1
Second: N#CCc1c[nH]c2ccc(OCc3ccccc3)c(Cl)c12
The melting point of the first is lower: 55.5 to 57.5 °C for the first, 130 to 132 °C for the second.

First: CCCCC(=O)c1[nH]c(=O)[nH]c1C
Second: Cc1cccc2c1N(CCN(C(C)C)C(C)C)C(=O)/C2=N/NC(N)=O
The melting point of the first is higher: 222 to 224 °C for the first, 194 to 195 °C for the second.

First: CCOC(=O)c1noc(C(Cc2ccccc2)NC(=O)OC(C)(C)C)n1 (stereo unspecified)
Second: CCN(CC)C(=O)c1ccccc1C(C)(C)C
The melting point of the first is higher: 72 to 76 °C for the first, 38.5 to 40.5 °C for the second.

`CC(=O)c1ccc(NS(C)(=O)=O)c(Oc2ccccc2S(C)=O)c1` (stereo unspecified) and `Cc1cccc2c1Sc1ccccc1N2` cannot be ordered by melting point: 113 to 116 °C for the first, 115 °C for the second.

First: O=C(CCCCc1ccc2c(c1)OCO2)NC1CCCCC1
Second: O=C1CC2CCC1C(Nc1ccc(Cl)cc1)C21CCCCC1 (stereo unspecified)
The melting point of the first is higher: 145 to 146 °C for the first, 139 to 141 °C for the second.

First: CC1(C)CC(C2CCC(O)CC2)CC(C)(C)N1 (stereo unspecified)
Second: O=C(O)Cc1ccc(OCCNC(=O)C2Cc3ccccc3N2S(=O)(=O)c2ccc(-c3ccc(F)cc3)cc2)cc1 (stereo unspecified)
The melting point of the first is higher: 145 to 150 °C for the first, 81 °C for the second.

First: COc1nc(-c2ccccc2)c2c(n1)N(c1c(F)cccc1F)C(=O)NC2
Second: O=c1[nH]c2ccc(Cl)cc2c2nc(-c3ccc(O)cc3)nn12
The melting point of the first is lower: 221 to 224 °C for the first, greater than 350 °C for the second.

Compared with `N=C(N)NCCc1ccc(OCCCC(c2ccccc2)(c2ccccc2)c2ccccc2)cc1`, `c1ccc(Nc2ccc(-c3ccc(N(c4ccc(-c5ccccc5)cc4)c4ccc(-c5ccccc5)cc4)cc3)cc2)cc1` is lower in melting point: 169 to 170 °C for the first, 146 °C for the second.

With `Cc1cc(CO)cc(C#N)n1` the melting point was 136 to 138 °C.
